These are literature values, as cited in patent US20260191871A1, “USE OF ANTIVIRAL AGENTS, COMPOSITION OF MATTER, COMBINATION PREPARATIONS/AGENTS TO TREAT CHRONIC DISEASES ASSOCIATED WITH EPSTEIN-BARR VIRUS AND OTHER HUMAN HERPES VIRUSES” (EPIPHANY BIOSCIENCES, priority 2022, published 2026).

The test system of data set [1] is human herpesvirus-6 (HHV-6).
Data set [2] concerns human varicella zoster virus (VZV).
The conditions of data set [3]: compared with the other polymorphic forms (O'Neill et al. '456).
The conditions of data set [4]: human, multiple dosing, total daily doses of up to 6.0 g.
A further data set concerns zoster. Conditions: suspension at 250, 500 and 750 mg twice daily for 7 days, zoster patients, acyclovir as control.

Each structure is given as a SMILES string.

`Nc1nc2c(ncn2C[C@H](CO)CCO)c(=O)[nH]1` [Formula H2G]: the “activity against human herpesvirus-6 (HHV-6)” value in [1] is “potent activity”. In addition, in the data set on Epstein-Barr virus (EBV), the “activity against Epstein-Barr virus (EBV)” value was “potent activity”. Also, the “activity against HSV-1” value with HSV-1 is recorded as “potent activity”. In addition, the “activity against HSV-2” value with HSV-2 is on record as “potent activity”. The “activity against human varicella zoster virus (VZV)” value in [2] is “potent activity”.
On to `CCCCCCCCCCCCCCCCCC(=O)OC[C@H](CCOC(=O)[C@@H](N)C(C)C)Cn1cnc2c(=O)[nH]c(N)nc21` [Polymorph A], for which the “thermodynamic stability among polymorphs of valomaciclovir stearate” value in data set [3] was “thermodynamically the most stable polymorph”.
As for `CCCCCCCCCCCCCCCCCC(=O)OC[C@H](CCOC(=O)[C@@H](N)C(C)C)Cn1cnc2c(=O)nc(N)[nH]c21` [valomaciclovir stearate, [(2R)-4-[(2S)-2-amino-3-methylbutanoyl]oxy-2-[(2-amino-6-oxo-3H-purin-9-yl)methyl]butyl]octadecanoate], the “replication of EBV” value in the data set with EBV was “suppresses replication of EBV”. In addition, in the data set on CMV, the “impact on CMV” value was “does not impact CMV”. Further, the safety and tolerability result in data set [4] is “safe and well tolerated”. The zoster lesion healing result in the data set with zoster is “proof-of-concept for zoster lesion healing”.
